From patent US7786083B2, “Metastin derivatives and use thereof” (Takeda Pharmaceutical Company Limited, priority 2006, dated 2010) come the findings set out here.

In this assay the test system is metastin receptors. Kind of assay: Measurement of agonist activity by assaying changes in intracellular calcium ion level (FLIPR, Fluo-4 NW). The class given is cell-based, human. As to conditions: specific activity of the EC50 of a test compound based on the EC50 of Metastin (45-54), metastin receptor expression CHO cells. Put shortly: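 CHO/dhfr⁻ cells stably expressing human or rat metastin receptor, seeded 3×10^4/well for 24 h, loaded with Fluo-4 NW 30 min at 37 °C in HBSS with 0.1% BSA, 20 mM HEPES pH 7.4 and 1 mM probenecid. Compound-stimulated intracellular calcium change read on FLIPR.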
On the technique in general: Calcium flux is commonly read through the fluorescence of an indicator in the cells.

*1 amine or outer side, *2 acyl side, *3 side chain or, on linkers, in order; H or OH if unused. Where a SMILES comes first, the peptide text is derived from it. Where no end group is shown, it is not given here. [ ]: non-standard residue; d: D form. Pro(trans-4-F) = O=C(O)[C@@H]1C[C@@H](F)CN1; X8 = O=C(CSC[C@H](Cc1ccccc1)N[*:1])[*:2]; 2Nal = N[C@@H](Cc1ccc2ccccc2c1)C(=O)O; X1 = CC(C)C[C@H](CCCN[*:1])C(=O)[*:2]; Arg(Me) = CNC(=N)NCCC[C@H](N)C(=O)O; Dap(CONH2) = NC(=O)NC[C@H](N)C(=O)O; Ala(cPr) = N[C@@H](CC1CC1)C(=O)O; Hyp = O=C(O)[C@@H]1C[C@@H](O)CN1; Cha = N[C@@H](CC1CCCCC1)C(=O)O; Cba = N[C@@H](CC1CCC1)C(=O)O; Dap = NC[C@H](N)C(=O)O

As for `CNC(=N)NCCC[C@H](NC(=O)[C@H](CC1CCCCC1)NC(=O)CNC(=O)[C@H](CC1CCCCC1)NC(=O)[C@@H](NC(=O)[C@H](CC(N)=O)NC(=O)[C@@H]1C[C@@H](O)CN1C(=O)[C@@H](Cc1ccc(O)cc1)NC(C)=O)[C@@H](C)O)C(=O)N[C@@H](Cc1c[nH]c2ccccc12)C(N)=O` [Compound No. 934, des(1)-Ac-[D-Tyr2,Hyp3,Thr5,Cha6,8,Arg(Me)9,Trp10]MS10] (Ac-[dY][Hyp]NT[Cha]G[Cha][Arg(Me)]W-NH2), the “Specific Activity” value was 3.5.

With `CC(=O)N[C@H](Cc1ccc(O)cc1)C(=O)N1C[C@H](O)C[C@H]1C(=O)N[C@@H](CC(N)=O)C(=O)N[C@H](C(=O)N[C@@H](CC1CCCCC1)C(=O)NCC(=O)N[C@@H](CC1CC1)C(=O)N[C@@H](CCCNC(=N)N)C(=O)N[C@@H](Cc1c[nH]c2ccccc12)C(N)=O)[C@@H](C)O` [Compound No. 940, des(1)-Ac-[D-Tyr2,Hyp3,Thr5,Cha6,Ala(cPr)8,Trp10]MS10] (Ac-[dY][Hyp]NT[Cha]G[Ala(cPr)]RW-NH2), the “Specific Activity” value came out at 0.5.

As for `CC(=O)N[C@H](Cc1ccc(O)cc1)C(=O)N[C@@H](CCC(=O)O)C(=O)N[C@@H](CC(N)=O)C(=O)N[C@H](C(=O)N[C@@H](CC1CCCCC1)C(=O)NCC(=O)N[C@@H](CC1CC1)C(=O)N[C@@H](CCCNC(=N)N)C(=O)N[C@@H](Cc1c[nH]c2ccccc12)C(N)=O)[C@@H](C)O` [Compound No. 942, des(1)-Ac-[D-Tyr2,Glu3,Thr5,Cha6,Ala(cPr)8,Trp10]MS10] (Ac-[dY]ENT[Cha]G[Ala(cPr)]RW-NH2), the “Specific Activity” value is given as 0.4.

In the case of `CNC(=N)NCCC[C@H](NC(=O)[C@H](CC(C)C)NC(=O)CSC[C@H](Cc1ccccc1)NC(=O)[C@@H](NC(=O)[C@H](CC(N)=O)NC(=O)[C@@H]1C[C@@H](O)CN1C(=O)[C@@H](Cc1ccc(O)cc1)NC(C)=O)[C@@H](C)O)C(=O)N[C@@H](Cc1c[nH]c2ccccc12)C(N)=O` [Compound No. 944, des(1)-Ac-[D-Tyr2,Hyp3,Thr5,Phe6Ψ(CH2S)Gly7,Arg(Me)9,Trp10]MS10] (Ac-[dY][Hyp]NT[X8]L[Arg(Me)]W-NH2), the “Specific Activity” value worked out at 0.7.

`CNC(=N)NCCC[C@H](NC(=O)[C@H](CC1CC1)NC(=O)CNC(=O)[C@H](CC1CCC1)NC(=O)[C@@H](NC(=O)[C@H](CC(N)=O)NC(=O)[C@@H]1C[C@@H](O)CN1C(=O)[C@@H](Cc1ccc(O)cc1)NC(C)=O)[C@@H](C)O)C(=O)N[C@@H](Cc1c[nH]c2ccccc12)C(N)=O` [Compound No. 945, des(1)-Ac-[D-Tyr2,Hyp3,Thr5,Ala(cBu)6,Ala(cPr)8,Arg(Me)9,Trp10]MS10] (Ac-[dY][Hyp]NT[Cba]G[Ala(cPr)][Arg(Me)]W-NH2): the “Specific Activity” value is recorded as 0.7.

For the compound `CNC(=N)NCCC[C@H](NC(=O)[C@H](CC1CCC1)NC(=O)CNC(=O)[C@H](CC1CCCCC1)NC(=O)[C@@H](NC(=O)[C@H](CC(N)=O)NC(=O)[C@@H]1C[C@@H](O)CN1C(=O)[C@@H](Cc1ccc(O)cc1)NC(C)=O)[C@@H](C)O)C(=O)N[C@@H](Cc1c[nH]c2ccccc12)C(N)=O` [Compound No. 946, des(1)-Ac-[D-Tyr2,Hyp3,Thr5,Cha6,Ala(cBu)8,Arg(Me)9,Trp10]MS10] (Ac-[dY][Hyp]NT[Cha]G[Cba][Arg(Me)]W-NH2), the “Specific Activity” value worked out at 0.5.

`CNC(=N)NCCC[C@H](NC(=O)[C@H](CC1CC1)NC(=O)CNC(=O)[C@H](CC1CCCCC1)NC(=O)[C@H](CO)NC(=O)[C@H](CNC(N)=O)NC(=O)[C@@H]1C[C@@H](O)CN1C(=O)[C@@H](Cc1ccc(O)cc1)NC(C)=O)C(=O)N[C@@H](Cc1c[nH]c2ccccc12)C(N)=O` [Compound No. 948, des(1)-Ac-[D-Tyr2,Hyp3,Alb4,Ser5,Cha6,Ala(cPr)8,Arg(Me)9,Trp10]MS10] (Ac-[dY][Hyp][Dap(CONH2)]S[Cha]G[Ala(cPr)][Arg(Me)]W-NH2): the “Specific Activity” value came out at 0.5.

On to `CNC(=N)NCCC[C@H](NC(=O)[C@H](CC1CC1)NC(=O)CNC(=O)[C@H](CC1CCCCC1)NC(=O)CNC(=O)[C@H](CNC(N)=O)NC(=O)[C@@H]1C[C@@H](O)CN1C(=O)[C@@H](Cc1ccc(O)cc1)NC(C)=O)C(=O)N[C@@H](Cc1c[nH]c2ccccc12)C(N)=O` [Compound No. 949, des(1)-Ac-[D-Tyr2,Hyp3,Alb4,Gly5,Cha6,Ala(cPr)8,Arg(Me)9,Trp10]MS10] (Ac-[dY][Hyp][Dap(CONH2)]G[Cha]G[Ala(cPr)][Arg(Me)]W-NH2), for which the “Specific Activity” value was found to be 0.7.

For `CNC(=N)NCCC[C@H](NC(=O)[C@H](CC1CC1)NC(=O)CNC(=O)[C@H](CC1CCCCC1)NC(=O)[C@H](CN)NC(=O)[C@H](CNC(N)=O)NC(=O)[C@@H]1C[C@@H](O)CN1C(=O)[C@@H](Cc1ccc(O)cc1)NC(C)=O)C(=O)N[C@@H](Cc1c[nH]c2ccccc12)C(N)=O` [Compound No. 951, des(1)-Ac-[D-Tyr2,Hyp3,Alb4,Dap5,Cha6,Ala(cPr)8,Arg(Me)9,Trp10]MS10] (Ac-[dY][Hyp][Dap(CONH2)][Dap][Cha]G[Ala(cPr)][Arg(Me)]W-NH2), the “Specific Activity” value amounted to 0.7.

As for `CC(=O)N[C@H](Cc1ccc(O)cc1)C(=O)N1C[C@H](O)C[C@H]1C(=O)N[C@@H](CNC(N)=O)C(=O)N[C@H](C(=O)N[C@@H](CC1CCCCC1)C(=O)NCCC[C@@H](CC(C)C)C(=O)N[C@@H](CCCNC(=N)N)C(=O)N[C@@H](Cc1c[nH]c2ccccc12)C(N)=O)[C@@H](C)O` [Compound No. 952, des(1)-Ac-[D-Tyr2,Hyp3,Alb4,Thr5,Cha6,Gly7Ψ(CH2CH2)Leu8,Trp10]MS10] (Ac-[dY][Hyp][Dap(CONH2)]T[Cha][X1]RW-NH2), the “Specific Activity” value amounted to 1.3.

As for `CNC(=N)NCCC[C@H](NC(=O)[C@H](CC1CC1)NC(=O)CNC(=O)[C@H](CC1CCCCC1)NC(=O)[C@@H](NC(=O)[C@H](CNC(N)=O)NC(=O)[C@@H]1C[C@@H](O)CN1C(=O)[C@@H](Cc1ccc(O)cc1)NC(C)=O)[C@@H](C)O)C(=O)N[C@@H](Cc1c[nH]c2ccccc12)C(N)=O` [Compound No. 953, des(1)-Ac-[D-Tyr2,Hyp3,Alb4,Thr5,Cha6,Ala(cPr)8,Arg(Me)9,Trp10]MS10] (Ac-[dY][Hyp][Dap(CONH2)]T[Cha]G[Ala(cPr)][Arg(Me)]W-NH2), the “Specific Activity” value turned out to be 0.5.

Take `CC(=O)N[C@H](Cc1ccc(O)cc1)C(=O)N1C[C@H](O)C[C@H]1C(=O)N[C@@H](CC(N)=O)C(=O)N[C@H](C(=O)N[C@@H](CC1CCCCC1)C(=O)NCCC[C@@H](CC(C)C)C(=O)N[C@@H](CCCNC(=N)N)C(=O)N[C@@H](Cc1c[nH]c2ccccc12)C(N)=O)[C@@H](C)O` [Compound No. 956, des(1)-Ac-[D-Tyr2,Hyp3,Thr5,Cha6,Gly7Ψ(CH2CH2)Leu8,Trp10]MS10] (Ac-[dY][Hyp]NT[Cha][X1]RW-NH2): the “Specific Activity” value is listed as 1.1.

As for `CNC(=N)NCCC[C@H](NC(=O)[C@@H](CCCNC(=O)[C@H](CC1CCCCC1)NC(=O)[C@@H](NC(=O)[C@H](CNC(N)=O)NC(=O)[C@@H]1C[C@@H](O)CN1C(=O)[C@@H](Cc1ccc(O)cc1)NC(C)=O)[C@@H](C)O)CC(C)C)C(=O)N[C@@H](Cc1c[nH]c2ccccc12)C(N)=O` [Compound No. 957, des(1)-Ac-[D-Tyr2,Hyp3,Alb4,Thr5,Cha6,Gly7Ψ(CH2CH2)Leu8,Arg(Me)9,Trp10]MS10] (Ac-[dY][Hyp][Dap(CONH2)]T[Cha][X1][Arg(Me)]W-NH2), the “Specific Activity” value came to 1.1.

In the case of `CNC(=N)NCCC[C@H](NC(=O)[C@H](CC(C)C)NC(=O)NCC[C@H](Cc1ccccc1)NC(=O)[C@@H](NC(=O)[C@H](CC(N)=O)NC(=O)[C@@H]1C[C@@H](O)CN1C(=O)[C@@H](Cc1ccc(O)cc1)NC(C)=O)[C@@H](C)O)C(=O)N[C@@H](Cc1c[nH]c2ccccc12)C(N)=O` [Compound No. 968, des(1)-Ac-[D-Tyr2,Hyp3,Thr5,Phe6Ψ(CH2CH2)AzaGly7,Arg(Me)9,Trp10)MS10], the “Specific Activity” value is 0.6.

With “des(1)-Ac-[D-Tyr2,Hyp3,Alb4,Ala5,Cha6,Ala(cPr)8,Arg(Me)9,Trp10]MS10 (Ac-[dY][Hyp][Dap(CONH2)]A[Cha]G[Ala(cPr)][Arg(Me)]W-NH2; SMILES CNC(=N)NCCC[C@H](NC(=O)[C@H](CC1CC1)NC(=O)CNC(=O)[C@H](CC1CCCCC1)NC(=O)[C@H](C)NC(=O)[C@H](CNC(N)=O)NC(=O)[C@@H]1C[C@@H](O)CN1C(=O)[C@@H](Cc1ccc(O)cc1)NC(C)=O)C(=O)N[C@@H](Cc1c[nH]c2ccccc12)C(N)=O) [Compound No. 947]”, the “Specific Activity” value is 0.5.

As for “des(1)-Ac-[D-Tyr2,Hyp3,Thr5,Gly7Ψ(CH2NH)Leu8,Arg(Me)9,Trp10]MS10 (Ac-[dY][Hyp]NTFGL[Arg(Me)]W-NH2; also: -CONH- between Gly and Leu replaced by -CH2NH-) [Compound No. 854]”, the “Specific Activity” value was found to be 2.9.

“des(1)-Ac-[D-Tyr2,Hyp3,Thr5,Nal(2)6,Arg(Me)9,Trp10]MS10 (Ac-[dY][Hyp]NT[2Nal]GL[Arg(Me)]W; ends and bridges not checked) [Compound No. 919]”: the “Specific Activity” value stood at 1.0.

Take “des(1)-Ac-[D-Tyr2,Pro(4F)3,Thr5,Cha6,Ala(cPr)8,Arg(Me)9,Trp10]MS10 (Ac-[dY][Pro(trans-4-F)]NT[Cha]G[Ala(cPr)][Arg(Me)]W-NH2; SMILES CNC(=N)NCCC[C@H](NC(=O)[C@H](CC1CC1)NC(=O)CNC(=O)[C@H](CC1CCCCC1)NC(=O)[C@@H](NC(=O)[C@H](CC(N)=O)NC(=O)[C@@H]1C[C@@H](F)CN1C(=O)[C@@H](Cc1ccc(O)cc1)NC(C)=O)[C@@H](C)O)C(=O)N[C@@H](Cc1c[nH]c2ccccc12)C(N)=O) [Compound No. 959]”: the “Specific Activity” value amounted to 0.4.
